Reference: patent US20130102009A1, “SIRTUIN ACTIVATORS AND ACTIVATION ASSAYS” (priority 2010, published 2013)
Where “and” joins values, the source holds several entries; their conditions need not be identical. Identical values can stand only once. Counter-ions that a name gives are not always drawn. Like-named read-outs stand apart in the source and are kept apart here. Blank lines part the entries; values can stand above or below the molecule they belong to.

Experiments:
SIRT1(183-664) = target: T1, SIRT1(183-664) (Homo sapiens, UniProt Q96EB6); experiment: ITC binding of STACs to SIRT1(183-664); details: dissociation constant of SRT:SIRT1 complex, read-out: Kx (μM), ITC
T1 construct: the truncated version used for biophysical studies SIRT1(183-664); made in house
T1 sequence (Q96EB6 183-664): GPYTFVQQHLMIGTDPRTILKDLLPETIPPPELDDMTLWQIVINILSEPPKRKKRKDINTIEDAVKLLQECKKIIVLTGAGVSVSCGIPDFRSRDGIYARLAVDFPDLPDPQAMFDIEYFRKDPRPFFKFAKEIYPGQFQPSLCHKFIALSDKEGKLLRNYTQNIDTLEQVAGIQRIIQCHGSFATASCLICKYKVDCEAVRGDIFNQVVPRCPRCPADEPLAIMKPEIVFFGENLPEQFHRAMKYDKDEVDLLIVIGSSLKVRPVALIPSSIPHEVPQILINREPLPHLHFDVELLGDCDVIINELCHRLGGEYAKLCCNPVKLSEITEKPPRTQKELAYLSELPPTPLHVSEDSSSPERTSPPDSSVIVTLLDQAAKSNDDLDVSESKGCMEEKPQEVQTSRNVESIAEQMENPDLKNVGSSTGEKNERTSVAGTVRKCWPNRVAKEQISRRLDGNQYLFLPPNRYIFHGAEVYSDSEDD
Description: All peptides were prepared by BioPeptide (San Diego, Calif.) and shown to be at least 95% pure by analytical HPLC analysis. Bovine glutamate dehydrogenase (GDH), α-ketoglutarate, NADH and NAD^+ were from Sigma Chemical Company. Full-length, human SIRT1 and the truncated version used for biophysical studies SIRT1(183-664) were prepared as described previously, and shown to have equivalent kinetic properties (Milne et al. (2007) Nature 450, 712-716). The nicotinamidase PNC1 was prepared as described by Denu and colleagues (Smith et al. (2009) Anal Biochem 394, 101-109). ITC experiments were performed using either a VP-ITC system or iTC200 system (MicroCal) at 26° C. in a buffer composed of 137 mM NaCl, 2.7 mM KCl, 1 mM MgCl2, 2 mM TCEP, 5% (v/v) glycerol and 50 mM HEPES-NaOH, pH 7.3. SIRT1(183-664) was purified and dialyzed against the buffer, centrifuged, and degassed before the experiment. The peptide and compounds were dissolved in the final dialysis buffer and their pH values were adjusted to match that of the protein solution. […] To characterize this interaction using the iTC200 system, 1 mM TAMRA-peptide was injected in 20 aliquots of 2 μL, (except the first injection, which was 0.5 μL) into a 0.202 mL sample cell containing 100 μM STAC. For STACs with poor solubility, the concentrations were adjusted accordingly. […] To characterize the interaction of a STAC with SIRT1(183-664) on the VP-ITC system, 100 μM enzyme was injected in 35 aliquots of 8 μL, (except the first injection, which was 2 μL) into a 1.47 mL sample cell containing 10 μM STAC. […] In all cases, data was corrected for the heat of dilution and fitted using a nonlinear least-squares routine using a single-site binding model with Origin for ITC v7.0383 (Microcal) with the stoichiometry (n), the enthalpy of the reaction (ΔH) and the association constant (Ka) calculated.

SIRT1 = target: T2, SIRT1 (Homo sapiens, UniProt Q96EB6); experiment: Fits of SIRT1 activation data (TAMRA-peptide) to kinetic models: Michaelis-Menten, eq (5), eq (9); assay type: biochemical; details: for Vmax,app: data of Milne et al. fit to Michaelis-Menten equation
T2 sequence (Q96EB6 1-747): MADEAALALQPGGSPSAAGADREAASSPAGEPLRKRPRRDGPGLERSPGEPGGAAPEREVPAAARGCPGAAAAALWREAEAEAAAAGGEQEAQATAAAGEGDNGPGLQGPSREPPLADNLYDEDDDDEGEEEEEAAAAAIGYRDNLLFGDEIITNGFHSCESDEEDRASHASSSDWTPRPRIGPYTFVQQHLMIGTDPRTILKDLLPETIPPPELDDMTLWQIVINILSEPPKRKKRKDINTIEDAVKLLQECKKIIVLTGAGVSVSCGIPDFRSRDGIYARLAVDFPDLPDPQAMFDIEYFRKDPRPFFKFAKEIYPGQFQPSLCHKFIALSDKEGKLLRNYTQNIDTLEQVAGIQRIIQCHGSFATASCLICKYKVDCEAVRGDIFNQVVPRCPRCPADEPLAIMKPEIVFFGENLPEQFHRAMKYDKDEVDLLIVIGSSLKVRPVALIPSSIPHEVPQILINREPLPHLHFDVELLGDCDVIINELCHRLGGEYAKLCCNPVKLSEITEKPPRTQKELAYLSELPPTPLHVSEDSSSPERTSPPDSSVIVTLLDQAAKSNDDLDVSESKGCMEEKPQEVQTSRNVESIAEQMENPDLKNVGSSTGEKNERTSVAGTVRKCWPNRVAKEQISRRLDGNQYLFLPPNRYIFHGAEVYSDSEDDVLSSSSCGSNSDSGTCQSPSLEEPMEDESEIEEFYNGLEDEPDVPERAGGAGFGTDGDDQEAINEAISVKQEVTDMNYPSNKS
Source text: The rate law for the mechanism of FIG. 2A can be derived starting with the expression of eq (4), which was derived using the rapid equilibrium assumption. To express the rate law in terms of total and free substrate, eq (4) can be […] show in eq (5). This derivation will be complete if we can express [S] in terms of [S]o, [X]o, and Kd. This starts with the definition of Kd, given in eq (6): The rate law for the mechanism of FIG. 2B can be derived using the rapid equilibrium assumption and is given in eq (9). […] To determine if the mechanism of FIG. 2A could accommodate such an activator, we fit the activation titration curve reported in Milne et al. ((2007) Nature 450, 712-716) to the expression of eq (5). This curve is reproduced in FIG. 7A. […] In this fitting, the following constraints were used: […] If the mechanism of FIG. 2A obtains for SRT1460, parameter estimates from the two types of experiment must be the same. […] Enzyme allostery can account for the activation of the SIRT1-Catalyzed deacetylation of TAMRA-Peptide by SRT1460 When the rate law for the allosteric mechanism of activation, is used to fit the data of FIG. 7B the following best-fit parameters are obtained: Kx=8.7±0.8 μM, β=0.26±0.02, and γ=1.48±0.04. The lines drawn using eq (9) and these parameters show an excellent fit to the data. These lines superimpose on those drawn from the individual fits and the parameter estimates of Table 5.

- Kd (SIRT1(183-664)): 0.32 µM
SMILES: CN(C)Cc1cnc2sc(-c3ccccc3NC(=O)c3cnc4ccccc4n3)nc2c1 [Compound 2, N-(2-(6-((dimethylamino)methyl)thiazolo[5,4-b]pyridin-2-yl)phenyl)quinoxaline-2-carboxamide]

- Kd (SIRT1(183-664)): 3 µM
SMILES: Cc1nc(-c2cccnc2)sc1C(=O)Nc1ccccc1-c1cn2c(CN3CC4CC3CN4)csc2n1 (stereo not drawn) [Compound 4, N-(2-(3-(2,5-diazabicyclo[2.2.1]heptan-2-ylmethyl)imidazo[2,1-b]thiazol-6-yl)phenyl)-4-methyl-2-(pyridin-3-yl)thiazole-5-carboxamide]

SMILES: CCCCc1nc(NC2CCNCC2)cc(C(=O)Nc2ccccc2-c2nc3cc(COC4CCNCC4)cnc3s2)n1 [Compound 10, 2-butyl-6-(piperidin-4-ylamino)-N-(2-(6-((piperidin-4-yloxy)methyl)thiazolo[5,4-b]pyridin-2-yl)phenyl)pyrimidine-4-carboxamide]
- γ, best fit of activator titration curve to eq (5) (indirect mechanism of FIG. 2A) (SIRT1; [S]o and Km constrained): 0.69±0.08

- Kd (SIRT1(183-664)): 0.43 µM
SMILES: CN(C)CCCNc1cc(-c2nc3c(NC(=O)c4ccc(CN5CCNCC5)cc4)cccc3[nH]2)ccn1 [Compound 14, N-(2-(2-(3-(dimethylamino)propylamino)pyridin-4-yl)-1H-benzo[d]imidazol-4-yl)-4-(piperazin-1-ylmethyl)benzamide trihydrochloride]

SMILES: COc1cc(C(=O)Nc2ccccc2-c2cn3c(CN4CCNCC4)csc3n2)cc(OC)c1OC [SRT1460]
- γ, global fit of velocity vs substrate data at fixed activator concentrations (FIG. 7B) to eq (5) (SIRT1; Kd assigned 140 μM, data of Milne et al.): 1.53±0.07 and 1.53
- Km (SIRT1; Kd assigned 140 μM, data of Milne et al., read-out: Km,x, global fit of velocity vs substrate data at fixed activator concentrations (FIG. 7B) to eq (5)): 1 ± 0.1 µM
- Km (SIRT1; Kd, [S]o and Km constrained, read-out: Km,x, best fit of activator titration curve to eq (5) (indirect mechanism of FIG. 2A)): 0.09 µM
- Vmax,app (SIRT1; [SRT1460] 3 μM): 11 units
- Vmax,app (SIRT1; [SRT1460] 11 μM): 12 units
- Vmax,app (SIRT1; [SRT1460] 37 μM): 14 units
- γ, best fit of activator titration curve to eq (5) (indirect mechanism of FIG. 2A) (SIRT1; [S]o and Km constrained): 0.20 and 0.20 ± 0.01
- Km (SIRT1; [S]o and Km constrained, read-out: Km,x, best fit of activator titration curve to eq (5) (indirect mechanism of FIG. 2A)): 0.09 µM
- Kx, best fit of FIG. 7B data to allosteric rate law eq (9) (SIRT1; data of Milne et al.): 8.7 ± 0.8 µM
- β, best fit of FIG. 7B data to allosteric rate law eq (9) (SIRT1; data of Milne et al.): 0.26±0.02
- γ, best fit of FIG. 7B data to allosteric rate law eq (9) (SIRT1; data of Milne et al.): 1.48±0.04
